The structures appear in SMILES notation. Where a name gives a salt, the structure may show the parent alone.

The melting point is the temperature, or range, at which the solid turns liquid.

`COc1ccc(CNc2nc(CCC(=O)O)nc3sc4c(c23)CCCC4)cc1Cl` (as salt: salt) [Example 2, 3-[4-(3-chloro-4-methoxybenzylamino)-5,6,7,8-tetrahydro-[1]-benzothieno-[2,3-d]-pyrimidin-2-yl]propionic acid] displayed a melting point of 229 °C.

The record behind these values is patent publication US20040034040A1, “Use of thienopyrimidines” (priority 2000, published 2004).
